Experimental findings from patent US20080262026A1, “Therapeutic Agents 684” (AstraZeneca AB, priority 2007, published 2008) are described below.

Series [1] has as its target T1, CB1 receptor (Homo sapiens, UniProt P21554).
T1 construct: expressed in transfected cells
Put plainly: [35S]-GTPγS binding assay, inhibition of CP55940 (EC80) stimulated activity in membranes of cells stably transfected with the CB1 gene. Format: biochemical. On the procedure: 10 μg of membranes prepared from cells stably transfected with the CB1 gene were suspended in 200 μl of 100 mM NaCl, 5 mM MgCl2, 1 mM EDTA, 50 mM HEPES (pH 7.4), 1 mM DTT, 0.1% BSA and 100 μM GDP. To this was added an EC80 concentration of agonist (CP55940), the required concentration of test compound and 0.1 μCi [^35S]-GTPγS. The reaction was allowed to proceed at 30° C. for 45 min. Samples were then transferred on to GF/B filters using a cell harvester and washed with wash buffer (50 mM Tris (pH 7.4), 5 mM MgCl2, 50 mM NaCl). Filters were then covered with scintilant and counted for the amount of [^35S]-GTPγS retained by the filter.
Activity is measured in the absence of all ligands (minimum activity) or in the presence of an EC80 concentration of CP55940 (maximum activity). These activities are set as 0% and 100% activity respectively. At various concentrations of novel ligand, activity is calculated as a percentage of the maximum activity and plotted. The data are fitted using the equation y=A+((B−A)/1+((C/x)ÚD)) and the IC50 value determined as the concentration required to give half maximal inhibition of GTPγS binding under the conditions used.

The nature of series [2]: Solubility in dimethyl sulfoxide. Format: physicochemical. As to conditions: organic solvent dimethyl sulfoxide. From the text: The compounds of the present invention have improved solubility in organic solvents compared to compounds in the prior art. […] It would be expected that this increase in solubility in organic solvents would lead to improvements in bioavailability and ease of manufacture and formulation.

Where [3] appears, read: half maximal inhibition of GTPγS binding, EC80 concentration of agonist CP55940, 30° C. 45 min, read-out: IC50.

What is called IC50 is the concentration that inhibits the measured activity by half.

Read-outs that look alike come from different tables or passages of the source.

T1 sequence (P21554 whole entry): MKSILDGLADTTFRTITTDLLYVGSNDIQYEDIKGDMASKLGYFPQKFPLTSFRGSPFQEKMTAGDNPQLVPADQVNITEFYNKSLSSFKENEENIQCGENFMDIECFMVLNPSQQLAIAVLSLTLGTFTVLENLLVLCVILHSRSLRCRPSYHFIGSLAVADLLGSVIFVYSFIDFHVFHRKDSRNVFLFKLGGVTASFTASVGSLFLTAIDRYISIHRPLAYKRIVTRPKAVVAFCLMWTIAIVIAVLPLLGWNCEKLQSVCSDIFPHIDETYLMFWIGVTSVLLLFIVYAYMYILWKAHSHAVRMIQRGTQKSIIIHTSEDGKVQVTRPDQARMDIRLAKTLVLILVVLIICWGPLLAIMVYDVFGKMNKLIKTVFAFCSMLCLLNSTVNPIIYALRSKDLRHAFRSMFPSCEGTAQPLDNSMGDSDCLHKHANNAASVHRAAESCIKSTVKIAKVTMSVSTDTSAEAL

As to `CCC/C=C/c1ccc(-c2c(C)c3c(n2-c2ccc(Cl)cc2Cl)CCN(N2CCCCC2)C3=O)cc1` [Example 5, 1-(2,4-dichlorophenyl)-3-methyl-2-{4-[pent-1-en-1-yl]phenyl}-5-piperidin-1-yl-1,5,6,7-tetrahydro-4H-pyrrolo[3,2-c]pyridin-4-one], the IC50 in series [1] (setting [3]) is 2.1 nM.

Turning to `Cc1c2c(n(-c3ccc(Cl)cc3Cl)c1-c1ccc(/C=C/CCC(F)(F)F)cc1)CCN(N1CCCCC1)C2=O` [Example 3, 1-(2,4-dichlorophenyl)-3-methyl-5-piperidin-1-yl-2-{4-[5,5,5-trifluoropent-1-en-1-yl]phenyl}-1,5,6,7-tetrahydro-4H-pyrrolo[3,2-c]pyridin-4-one], in series [1] (setting [3]), the IC50 turned out to be 5 nM.

With `Cc1c2c(n(-c3ccc(Cl)cc3Cl)c1-c1ccc(Cl)cc1)CCN(N1CCCCC1)C2=O` [Example 19 of WO03/027114, 2-(4-chlorophenyl)-1-(2,4-dichlorophenyl)-3-methyl-5-(1-piperidinyl)-1,5,6,7-tetrahydro-4H-pyrrolo-[3,2-c]pyridin-4-one], in series [2], the “solubility in dimethyl sulfoxide” value was “insoluble”.

In the case of `Cc1c2c(n(-c3ccc(Cl)cc3Cl)c1-c1ccc(CCCCC(F)(F)F)cc1)CCN(N1CCCCC1)C2=O` [Example 4, 1-(2,4-dichlorophenyl)-3-methyl-5-piperidin-1-yl-2-[4-(5,5,5-trifluoropentyl)phenyl]-1,5,6,7-tetrahydro-4H-pyrrolo[3,2-c]pyridin-4-one], in series [1] (setting [3]), the IC50 was 2.5 nM.

The molecule `CCCCCc1ccc(-c2c(C)c3c(n2-c2ccc(Cl)cc2Cl)CCN(N2CCCCC2)C3=O)cc1` [Example 6, 1-(2,4-dichlorophenyl)-3-methyl-2-(4-pentylphenyl)-5-piperidin-1-yl-1,5,6,7-tetrahydro-4H-pyrrolo[3,2-c]pyridin-4-one] gave an IC50 in series [1] of 2.1 nM.

On to `Cc1c2c(n(-c3ccc(Cl)cc3Cl)c1-c1ccc(CN3CCC(F)(F)C3)cc1)CCN(N1CCCCC1)C2=O` [Example 1, 1-(2,4-dichlorophenyl)-2-{4-[(3,3-difluoropyrrolidin-1-yl)methyl]phenyl}-3-methyl-5-piperidin-1-yl-1,5,6,7-tetrahydro-4H-pyrrolo[3,2-c]pyridin-4-one], for which the IC50 in series [1] (setting [3]) is 5.1 nM.

`Cc1c2c(n(-c3ccc(Cl)cc3Cl)c1-c1ccc(CN3CC(F)(F)C3)cc1)CCN(N1CCCCC1)C2=O` [Example 2, 1-(2,4-dichlorophenyl)-2-{4-[(3,3-difluoroazetidin-1-yl)methyl]phenyl}-3-methyl-5-piperidin-1-yl-1,5,6,7-tetrahydro-4H-pyrrolo[3,2-c]pyridin-4-one]: in series [1] (setting [3]), the IC50 was determined as 7.5 nM.
